Source: patent US12102635B2, “Methods of using protein palmitoylations inhibitors” (priority 2021, dated 2024)
“And” between values parts separate entries of the source, which are not always exact repeats. Equal values may be shown once.

Experiments:
[1] = system: SARS-CoV-2-mNG; assay type: cell-based
[2] = system: SARS-CoV-2 spike protein; assay type: cell-based, human
[3] = system: SARS-COV-2 spike pseudotyped lentivirus; assay type: cell-based
[4] = system: SARS-CoV-2; assay type: cell-based
[5] = molecular target: T1, yeast homolog of DHHC9 (Saccharomyces cerevisiae, UniProt Q06551); settings: previous screen; cited from earlier work
T1 sequence (Q06551 1-359): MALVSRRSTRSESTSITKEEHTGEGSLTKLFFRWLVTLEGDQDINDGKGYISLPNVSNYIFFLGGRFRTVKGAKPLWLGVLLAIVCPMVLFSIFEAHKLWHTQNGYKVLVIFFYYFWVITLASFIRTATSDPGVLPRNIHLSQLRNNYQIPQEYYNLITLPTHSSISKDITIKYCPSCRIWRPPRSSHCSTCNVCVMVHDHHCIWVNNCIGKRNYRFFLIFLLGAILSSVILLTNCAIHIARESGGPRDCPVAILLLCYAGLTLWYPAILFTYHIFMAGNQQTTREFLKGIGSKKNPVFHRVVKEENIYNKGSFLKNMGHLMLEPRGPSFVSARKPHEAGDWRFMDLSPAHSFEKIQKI
T1 sequence (P41912 1-237 partner): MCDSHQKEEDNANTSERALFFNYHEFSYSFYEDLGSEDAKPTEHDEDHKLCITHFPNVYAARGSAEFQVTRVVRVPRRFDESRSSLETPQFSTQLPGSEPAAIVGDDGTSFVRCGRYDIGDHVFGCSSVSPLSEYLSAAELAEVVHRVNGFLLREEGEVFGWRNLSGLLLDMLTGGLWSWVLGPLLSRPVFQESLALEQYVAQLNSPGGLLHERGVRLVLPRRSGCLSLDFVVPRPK

[6] = system: SARS-CoV-2 spike protein; assay type: cell-based
[7] = system: HEK293T cells; settings: for observable toxicity: XTT, concentrations below 3 μM, relative to DMSO
[8] = system: Caco-2 cells; settings: XTT, concentrations below 3 μM, relative to DMSO
[9] = system: SARS-COV-2 spike pseudotyped lentivirus; assay type: cell-based; remark: listed apart in the source
[10] = system: GAPDH; assay type: cell-based, human; settings: 10 μM, HEK293T cells
[11] = system: SARS-COV-2 spike pseudotyped lentivirus; assay type: cell-based; remark: listed apart in the source

SMILES	mNeonGreen signal [1]	reduction in syncytia formation [2]	quantity of pseudovirus released from the producer cells (egress) [3]	reduction viral infection of Vero-E6 cells [4]	inhibition of palmitoylation [5]	reduction of palmitoylation of the spike protein [6]	maximal non-toxic concentration [7]	observable toxicity [7]	observable toxicity [8]	luciferase signal (pseudovirus infection) [9]	GAPDH palmitoylation [10]	spike palmitoylation [6]	pseudovirus infection (luciferase) [11]
CC(C)Cc1ccc(C(C)CN2CCNC[C@@H]2CCCCN2CCN(CC(C)c3ccc(CC(C)C)cc3)[C@@H](Cc3ccc(O)cc3)C2)cc1 (stereo partly drawn) [Compound 2, 4-(((2S)-1-(2-(4-isobutylphenyl)propyl)-4-(4-((2S)-1-(2-(4-isobutylphenyl)propyl)piperazin-2-yl)butyl)piperazin-2-yl)methyl) phenol]	dose dependent reduction in mNeonGreen signal	58% and 60%	do not reduce the quantity of pseudovirus released	60%	low micromolar concentrations	37%	3 µM	no observable toxicity	no observable toxicity				
CCCCCCCCCCCCCCC(Br)C(=O)O (centres unmarked) [Compound 2-BP, 2-bromopalmitic acid, reference compound]	dose dependent reduction in mNeonGreen signal									reduced luciferase signal significantly	reduced	inhibited spike palmitoylation	significant reduction in pseudovirus infection
CC(C)Cc1ccc(C(C)CN2CCN(CCCC[C@H]3CNCCN3CCc3cc(C(F)(F)F)cc(C(F)(F)F)c3)C[C@@H]2Cc2ccc(O)cc2)cc1 (stereo partly drawn) [Compound 3, 4-(((2S)-4-(4-((S)-1-(3,5-bis(trifluoromethyl)phenethyl)piperazin-2-yl)butyl)-1-(2-(4-isobutylphenyl)propyl)piperazin-2-yl)methyl) phenol]	dose dependent reduction in mNeonGreen signal	45% and 50%	do not reduce the quantity of pseudovirus released	76%	low micromolar concentrations	44%	3 µM	no observable toxicity	no observable toxicity				
